Species on record: Rattus norvegicus
Experiment: Open TG-GATES - Regimen: Single
Type: toxicity, organism-based, Sprague-Dawley
Parameters: regimen Single, gender Male, age 6 weeks
Details: in vivo, po, 10 mg/kg, route gavage, dose level Middle; for APTT / Bas / Eos / Fbg / Hb / Ht / Lym / MCH / MCHC / MCV / Mono / Neu / PT / Plat / RBC / Ret / WBC: tissue Blood; for KIDNEY_L / KIDNEY_R / KIDNEY_TOTAL: tissue Kidney; for LIVER: tissue Liver; for A/G / ALP / ALT / AST / BUN / CRE / Ca / Cl / DBIL / GLC / IP / K / LDH / Na / PL / RALB / TBIL / TC / TG / TP / gamma-GTP: tissue Plasma

With `CN(C)CCC(c1ccc(Cl)cc1)c1ccccn1` (configuration not stated) [CHLORPHENIRAMINE] the TERMINAL_BW (3 h) was 196.8 g, the APTT (3 h) was 19.7 s and the Bas (3 h) was 0%. For the same compound, the Eos (3 h) was 0.4%, the Fbg (3 h) was 295.8 mg/dL and the Hb (3 h) was 13.5 g/dL. For the same compound, the Ht (3 h) was 42%, the Lym (3 h) was 77.4% and the MCH (3 h) was 21.3 pg. The MCHC (3 h) was 32.1%, the MCV (3 h) was 66.1 fL and the Mono (3 h) was 3%. It also gave a Neu (3 h) of 18.2%, a PT (3 h) of 14.7 s and a Plat (3 h) of 126.4 x10_4/uL. It also gave an RBC (3 h) of 634 x10_4/ul, a Ret (3 h) of 9.7% and a WBC (3 h) of 73.4 x10_2/uL. The KIDNEY_L (3 h) was 0.8 g, the KIDNEY_R (3 h) was 0.8 g and the KIDNEY_TOTAL (3 h) was 1.6 g. For the same compound, the LIVER (3 h) was 9 g, the A/G (3 h) was 0.9 and the ALP (3 h) was 1551 IU/L. The ALT (3 h) was 47.4 IU/L, the AST (3 h) was 74.6 IU/L and the BUN (3 h) was 9.2 mg/dL. It also gave a CRE (3 h) of 0.2 mg/dL, a Ca (3 h) of 10.9 mg/dL and a Cl (3 h) of 107.6 meq/L. It also gave a DBIL (3 h) of 0.006 mg/dL, a GLC (3 h) of 180.2 mg/dL and an IP (3 h) of 10.3 mg/dL. It also gave a K (3 h) of 4.1 meq/L, an LDH (3 h) of 200.6 IU/L and a Na (3 h) of 144.6 meq/L. It also gave a PL (3 h) of 156 mg/dL, an RALB (3 h) of 2.6 g/dL and a TBIL (3 h) of 0.046 mg/dL. The TC (3 h) was 84.6 mg/dL, the TG (3 h) was 75 mg/dL and the TP (3 h) was 5.5 g/dL. The gamma-GTP (3 h) was 1 IU/L, the TERMINAL_BW (6 h) was 195.1 g and the APTT (6 h) was 21.5 s. The Bas (6 h) was 0%, the Eos (6 h) was 1% and the Fbg (6 h) was 297 mg/dL. It also gave a Hb (6 h) of 13.2 g/dL, a Ht (6 h) of 41% and a Lym (6 h) of 74.4%. The MCH (6 h) was 20.6 pg, the MCHC (6 h) was 32.2% and the MCV (6 h) was 64 fL. The Mono (6 h) was 3%, the Neu (6 h) was 20.8% and the PT (6 h) was 14.9 s. The Plat (6 h) was 129.3 x10_4/uL, the RBC (6 h) was 641.2 x10_4/ul and the Ret (6 h) was 8.8%. It also gave a WBC (6 h) of 74.4 x10_2/uL, a KIDNEY_L (6 h) of 0.8 g and a KIDNEY_R (6 h) of 0.9 g. For the same compound, the KIDNEY_TOTAL (6 h) was 1.7 g, the LIVER (6 h) was 8.4 g and the A/G (6 h) was 0.9. It also gave an ALP (6 h) of 1438.8 IU/L, an ALT (6 h) of 42.2 IU/L and an AST (6 h) of 73.4 IU/L. The BUN (6 h) was 7.8 mg/dL, the CRE (6 h) was 0.2 mg/dL and the Ca (6 h) was 10.5 mg/dL. It also gave a Cl (6 h) of 107 meq/L, a DBIL (6 h) of 0.006 mg/dL and a GLC (6 h) of 177.4 mg/dL. The IP (6 h) was 10.1 mg/dL, the K (6 h) was 4.2 meq/L and the LDH (6 h) was 176 IU/L. For the same compound, the Na (6 h) was 142.6 meq/L, the PL (6 h) was 140.6 mg/dL and the RALB (6 h) was 2.5 g/dL. It also gave a TBIL (6 h) of 0.04 mg/dL, a TC (6 h) of 80.8 mg/dL and a TG (6 h) of 42.6 mg/dL. It also gave a TP (6 h) of 5.5 g/dL, a gamma-GTP (6 h) of 1.6 IU/L and a TERMINAL_BW (9 h) of 192.7 g. It also gave an APTT (9 h) of 17.7 s, a Bas (9 h) of 0% and an Eos (9 h) of 1%. The Fbg (9 h) was 292.6 mg/dL, the Hb (9 h) was 13.3 g/dL and the Ht (9 h) was 41.3%. For the same compound, the Lym (9 h) was 76.2%, the MCH (9 h) was 20.8 pg and the MCHC (9 h) was 32.3%. It also gave an MCV (9 h) of 64.3 fL, a Mono (9 h) of 1.8% and a Neu (9 h) of 20.6%. The PT (9 h) was 15.1 s, the Plat (9 h) was 123.4 x10_4/uL and the RBC (9 h) was 643.8 x10_4/ul. It also gave a Ret (9 h) of 8.5%, a WBC (9 h) of 67.8 x10_2/uL and a KIDNEY_L (9 h) of 0.9 g. The KIDNEY_R (9 h) was 0.9 g, the KIDNEY_TOTAL (9 h) was 1.8 g and the LIVER (9 h) was 7.5 g. It also gave an A/G (9 h) of 0.9, an ALP (9 h) of 1406.4 IU/L and an ALT (9 h) of 35.2 IU/L. The AST (9 h) was 69 IU/L, the BUN (9 h) was 7.2 mg/dL and the CRE (9 h) was 0.1 mg/dL. It also gave a Ca (9 h) of 10.4 mg/dL, a Cl (9 h) of 105.6 meq/L and a DBIL (9 h) of 0.008 mg/dL. The GLC (9 h) was 162 mg/dL, the IP (9 h) was 10.4 mg/dL and the K (9 h) was 4 meq/L. For the same compound, the LDH (9 h) was 145.2 IU/L, the Na (9 h) was 142.4 meq/L and the PL (9 h) was 131.2 mg/dL. It also gave an RALB (9 h) of 2.5 g/dL, a TBIL (9 h) of 0.054 mg/dL and a TC (9 h) of 80 mg/dL. For the same compound, the TG (9 h) was 37.8 mg/dL, the TP (9 h) was 5.5 g/dL and the gamma-GTP (9 h) was 1.4 IU/L. It also gave a TERMINAL_BW (24 h) of 209.2 g, an APTT (24 h) of 21.6 s and a Bas (24 h) of 0%. The Eos (24 h) was 0.8%, the Fbg (24 h) was 287.6 mg/dL and the Hb (24 h) was 12.5 g/dL. The Ht (24 h) was 38.8%, the Lym (24 h) was 76.4% and the MCH (24 h) was 20.7 pg. It also gave an MCHC (24 h) of 32.4%, an MCV (24 h) of 63.9 fL and a Mono (24 h) of 3.8%. The Neu (24 h) was 18.2%, the PT (24 h) was 14.8 s and the Plat (24 h) was 118.2 x10_4/uL. The RBC (24 h) was 606.6 x10_4/ul, the Ret (24 h) was 8.5% and the WBC (24 h) was 79.8 x10_2/uL. It also gave a KIDNEY_L (24 h) of 0.9 g, a KIDNEY_R (24 h) of 0.9 g and a KIDNEY_TOTAL (24 h) of 1.7 g. It also gave an LIVER (24 h) of 9 g, an A/G (24 h) of 0.9 and an ALP (24 h) of 1569.6 IU/L. For the same compound, the ALT (24 h) was 46.4 IU/L, the AST (24 h) was 77.8 IU/L and the BUN (24 h) was 14.8 mg/dL. It also gave a CRE (24 h) of 0.2 mg/dL, a Ca (24 h) of 10.8 mg/dL and a Cl (24 h) of 106.6 meq/L. For the same compound, the DBIL (24 h) was 0.01 mg/dL, the GLC (24 h) was 184.2 mg/dL and the IP (24 h) was 8.2 mg/dL. For the same compound, the K (24 h) was 4.3 meq/L, the LDH (24 h) was 132.2 IU/L and the Na (24 h) was 142.8 meq/L. For the same compound, the PL (24 h) was 142.8 mg/dL, the RALB (24 h) was 2.6 g/dL and the TBIL (24 h) was 0.04 mg/dL. It also gave a TC (24 h) of 76.4 mg/dL, a TG (24 h) of 82.6 mg/dL and a TP (24 h) of 5.5 g/dL. It also gave a gamma-GTP (24 h) of 1.2 IU/L.

Reference: ChEMBL document CHEMBL3885861, “Open TG-GATES”
